Patent US8404696B2, “Quinazoline-2,4-dione derivative, and medical compositions for the prophylaxis and treatment of cranial nerve disease containing the same” (Shin Poong Pharmaceutical Co., Ltd., priority 2008, dated 2013)

Experiments:
[1] = system: thoracic aorta of rats; test: Relaxing effect on thoracic aorta contracted by phenylephrine (organ bath); parameters: species or system rats of SD species; settings: 67 μg/mL, phenylephrine 0.5 μM, mean n = 3; for inhibition at 67 µg/mL: Rattus norvegicus, read-out: Relaxation percentage
Source text: After male rats of SD species (250-300 g) were anesthetized by inhalation of ether, their thoracic aortas were extracted and put into a Krebs buffer (mM; NaCl 118, NaHCO3 27.3, KCl 4.8, MgSO4 1.2, KH2PO4 1.0, CaCl2 1.25, glucose 11.1). 2 mm of aortic ring was made under dissecting microscope and cultured in an organ bath to measure the tension of blood vessels. The organ bath was filled with Krebs buffer and saturated with 95% O2, 5% CO2 to maintain dissolved oxygen and physiological pH. Changing of tension was measured by a tension meter (Hugo-sachs, model K30) and recorded by physiological recorder (Coulbourn polygraph). The length of the blood vessels was increased step by step to make 1.0 g of basal tension for 90 minutes. The equilibrated blood vessel was contracted by phenylephrine (0.5 μM). When the contraction furrow reached equilibrium, compounds were added, followed by observation of relaxation response.

[2] = system: mixed culture of nerve cells-glial cells; test: Protecting effect on NMDA-induced nerve cell death (LDH release); format: cell-based, ICR mouse; settings: 100 μM NMDA, LDH release after 24 hours
Experimental: Isolation and culture of nerve cells were performed by Choi's method (Choi, D. W. 1985, Neurosci. Lett., 58: 293-297). That is, the cortex was isolated in fetus ICR mouse that was 14 days pregnant, and then single cells were obtained from the tissue using pipette. The cells were aliquoted into 2×10^5/well density in a 24-well plate (Falcon) in which glial cells of cerebral cortex had been cultured in an incubator maintained at 37° C. with 5% CO2 for over 3 weeks. The culture medium was supplemented with MEM (minimum essential medium, Sigma), 2 mM glutamine, 21 mM glucose, 26.5 mM bicarbonate, 10% fetal bovine serum (FBS). In 3-5 days after aliquot, 10 μM Ara-C (cytosine arabinoside) was treated to suppress proliferation of neuroglia. And it was treated with 100 μM NMDA and 1 μg/mL or 2 μg/mL of each sample (compound) to induce the death of nerve cells due to excitable toxicity for 20 minutes, in 12-15 days after aliquot. Because of nerve cell death, lactate dehydrogenase (LDH) accumulated in proportion to the number of dead cells. In 24 hours after drug treatment, the amount of dehydrogenase (LDH) released to outside of cells was measured by using an […] measurement kit (CytoTox 96, Promega). After the reaction was completed, the change of absorbance depending on the amount of LDH was measured by using a microplate spectrophotometer.

[3] = system: pentylentetrazole (PTZ)-induced convulsion; test: Anti-convulsant effect, pentylentetrazole (PTZ) test; format: in vivo; settings: 10 mg/kg intraperitoneally, PTZ 80 mg/kg subcutaneously; for mortality rate / Induction percentage of convulsion: (animals/total); for mortality rate: negative control 70(17/23); for Induction percentage of convulsion: negative control 100(23/23); for Initiation time of convulsion: negative control 5.0 ± 0.7; for Duration of convulsion: negative control 46.7 ± 3.3
Experimental: An experiment was performed by the method of Ali et al. (Ali, A. et al. 2006, Pharmacological Reports, 58: 242-245). A 10 mg/kg dose of compound was intraperitoneally administered to identify the anti-convulsant effect and the effect was observed (Table 8). Researching the process of activity was performed by the Anti-epileptic Drug Development Program (ADD) of NIH during development of the anti-convulsant drug. One of the assessed items of anti-convulsant activity in the first step of this program is the pentylentetrazole (PTZ) test. […] After 10 mg/kg of the testing drug was administered, assessment was performed by estimating the initiation time of convulsion, duration until convulsion completely disappeared and mortality rate. It was assessed as having an anti-convulsant effect when a single episode of clonic spasm was not shown over 5 seconds on at least one of the 4 laboratory animals after PTZ administration.

[4] = system: middle cerebral artery occlusion (MCAO) model; test: Anti-stroke effect in MCAO model, intravenous administration around reperfusion; format: in vivo, rats of SD species; settings: for Inhibitory percentage compared to negative control / Infarcted volume (Mean ± standard deviation): 1 mg/kg iv; for Infarcted volume (Mean ± standard deviation): negative control 0.43 ± 0.02
Experimental: Male rats of SD species with 290-300 g of body weight were used as laboratory animals, and 8 rats were used in each experiment group. The operation was performed by using the method of Nagasawa et al. (Nagasawa, H. and Gogure, K. 1989, Stroke, 20: 1037-1043).
The rats were anesthetized by Ketamine, and the operation was performed as body temperature was maintained using thermoplate. The cerebral region was incised following the median line of the neck, and the left common carotid artery, internal carotid artery and external carotid artery were separated, taking care not to damage the vagus nerve. The common carotid artery and external carotid artery were ligatured, and a probe was inserted into the internal carotid artery from the branch point of the internal and external carotid arteries. And then the fundus of the middle cerebral artery was occluded by ligature just on the upper side of the insertion region. A probe was made by heating the end of a 4-0 nylon surgical suture (Dafilon, B. Braun, Germany) and cut into 30 mm. The 7-9 mm end of the probe was coated with the mixture of silcon (Xantopren VL plus, Heraeus Kulzer, Germany) and curing agent (Optosyl-Xantopren VL plus, Heraeus Kulzer, Germany), and the thickness was to be 0.3-0.4 mm. After the intervention of the probe insertion and the animals came out of the anesthetic, individuals in which neurological deficit symptom (right direction circling) was observed were included in the ischemia group.
After 3 hours of ischemia, the inserted probe was removed to reperfuse blood circulation. The brain was extracted after 24 hours, followed by histological staining.
The compound 3 was administered at a programmed time before or after insertion of the probe with oral or intravenous administration. TTC (2,3,5-triphenyltetrazolium chloride) staining was performed to estimate the damage of brain tissue by ischemia. Procephalon of the extracted brain was sliced into 2 mm of sequential slice by using brain matrix (ASI instrument, Warren, Mich., USA). The slices were put into 2% of TTC solution and incubated at 37° C. for 60 minutes for staining. The TTC stained brain slice was fixed in 10% of formalin buffer and the front of the each slice was photographed with a digital camera. The infarcted areas (cm^2) that were not stained with deep red in each acquired image were measured using an image analyzer, and total infarcted volume (cm^3) was calculated by multiplying the thickness of the slices
In the experiment, the probe was removed after stoke induction so that circulation was reperfused.

[5] = treatment time 0.5 after reperfusion
[6] = treatment time 1 after reperfusion
[7] = treatment time 2 after reperfusion
[8] = treatment time 4 after reperfusion
[9] = treatment time 6 after reperfusion
[10] = treatment time 12 after reperfusion
[11] = treatment time 18 after reperfusion
[12] = treatment time 24 after reperfusion
[13] = treatment time −0.5 after reperfusion

Row | Structure (SMILES) | Inhibitory effect of cell death by NMDA-induced excitable neurotoxicity ([2]; 1 μg/ml compound) | Inhibitory effect of cell death by NMDA-induced excitable neurotoxicity ([2]; 2 μg/ml compound) | mortality rate [3] | Induction percentage of convulsion [3] | Initiation time of convulsion [3] | Duration of convulsion [3] | inhibition at 67 µg/mL [1] | further results
1 | O=c1[nH]c2ccccc2c(=O)n1CCCNCCCCN(CCCn1c(=O)[nH]c2ccccc2c1=O)Cc1ccccc1 [Compound 9, 3-{3-[4-({N-[3-(2,4-dioxo-1,4-dihydro-2H-quinazolin-3-yl)propyl]-N-benzyl}amino)butylamino]propyl}-1H-quinazoline-2,4-dione] | 21.4% | 33.3% | 67(4/6) % | 100(6/6) % | 4.4 ± 0.7 min | 39.8 ± 10.3 min | – | Relaxation percentage [1]: 95.5%
2 | O=C(c1ccccc1)N(CCCCNCCCn1c(=O)[nH]c2ccccc2c1=O)CCCn1c(=O)[nH]c2ccccc2c1=O [Compound 10, N-[3-(2,4-dioxo-1,4-dihydro-2H-quinazolin-3-yl)propyl]-N-{4-[3-(2,4-dioxo-1,4-dihydro-2H-quinazolin-3-yl)propylamino]butyl}benzamide] | 15.4% | 13.7% | 17(1/6) % | 100(6/6) % | 5.8 ± 1.4 min | 49.9 ± 5.4 min | 4.9% | –
3 | CS(=O)(=O)N(CCCCN(CCCn1c(=O)[nH]c2ccccc2c1=O)S(C)(=O)=O)CCCn1c(=O)[nH]c2ccccc2c1=O [Compound 18, N-[3-(2,4-dioxo-1,4-dihydro-2H-quinazolin-3-yl)propyl]-N-(4-{[3-(2,4-dioxo-1,4-dihydro-2H-quinazolin-3-yl)propyl]methansulfonylamino}butyl)methansulfonamide] | 44.4% | 21.0% | 0(0/6) % | 83(5/6) % | 19.1 ± 8.4 min | 5.2 ± 3.4 min | 42.4% | –
4 | CC(=O)N(CCCCNCCCn1c(=O)[nH]c2ccccc2c1=O)CCCNC(=O)c1ccc(O)cc1 [Compound 19, N-[3-(acetyl-{4-[3-(2,4-dioxo-1,4-dihydro-2H-quinazolin-3-yl)propylamino]butyl}amino)propyl]-4-hydroxybenzamide] | 40.1% | 45.2% | 0(0/6) % | 50(3/6) % | 38.7 ± 1.5 min | 1.8 ± 2.7 min | 11.8% | –
5 | CC(=O)N(CCCCNCCCNC(=O)c1ccc(O)cc1)CCCn1c(=O)[nH]c2ccccc2c1=O [Compound 20, N-[3-(4-{acetyl-[3-(2,4-dioxo-1,4-dihydro-2H-quinazolin-3-yl)propyl]amino}butylamino)propyl]-4-hydroxybenzamide] | 36.4% | 42.5% | 0(0/6) % | 50(3/6) % | 44.7 ± 11.0 min | 0.9 ± 1.9 min | 15.2% | –
6 | CN1C(=O)CN=C(c2ccccc2)c2cc(Cl)ccc21 [Diazepam, reference compound] | – | – | 0(0/6) % | 0(0/6) % | – | – | – | –
7 | C[C@]12N[C@H](Cc3ccccc31)c1ccccc12 [MK-801] | 49.0% | 63.6% | – | – | – | – | – | Inhibitory percentage compared to negative control [4, 5]: 50.2%; Infarcted volume (Mean ± standard deviation) [4, 5]: 0.21 ± 0.04 cm^3; Inhibitory percentage compared to negative control [4, 6]: 27.0%; Infarcted volume (Mean ± standard deviation) [4, 6]: 0.31 ± 0.02 cm^3; Inhibitory percentage compared to negative control [4, 7]: 22.8%; Infarcted volume (Mean ± standard deviation) [4, 7]: 0.33 ± 0.02 cm^3; Inhibitory percentage compared to negative control [4, 8]: 34.4%; Infarcted volume (Mean ± standard deviation) [4, 8]: 0.28 ± 0.08 cm^3; Inhibitory percentage compared to negative control [4, 9]: 13.3%; Infarcted volume (Mean ± standard deviation) [4, 9]: 0.37 ± 0.06 cm^3; Inhibitory percentage compared to negative control [4, 10]: 8.7%; Infarcted volume (Mean ± standard deviation) [4, 10]: 0.39 ± 0.06 cm^3; Inhibitory percentage compared to negative control [4, 11]: 7.4%; Infarcted volume (Mean ± standard deviation) [4, 11]: 0.40 ± 0.08 cm^3; Inhibitory percentage compared to negative control [4, 12]: 8.8%; Infarcted volume (Mean ± standard deviation) [4, 12]: 0.39 ± 0.05 cm^3; Inhibitory percentage compared to negative control [4, 13]: 55.4%; Infarcted volume (Mean ± standard deviation) [4, 13]: 0.19 ± 0.06 cm^3; Treatment time after reperfusion giving the maximum effect ([4]; positive control, iv): 30 min
